Data published in publication PMC4632086, “Effects and possible mechanisms of action of acacetin on the behavior and eye morphology of Drosophila models of Alzheimer’s disease” (Scientific Reports, 2015).

Key:
recombinant human BACE-1 = target: T1, recombinant human BACE-1 (Homo sapiens, UniProt P56817); test: FRET-based enzyme assay, BACE-1 inhibition; format: biochemical
T1 construct: purchased R&D Systems (Minneapolis, MN, USA)

GMR < APP/BACE-1 flies = test: Congo red staining of amyloid plaques in compound eyes; format: in vivo, Drosophila melanogaster; details: 5- and 15-day-old flies
Experimental: Congo red staining was performed to detect the amyloid plaques in the Drosophila AD model. The paraffin-embedded sections described above were deparaffinized and then stained using NovaUltra Special Stain Kits (IHC World, Woodstock, MD, USA) according to the manufacturer’s instructions. Finally, the sections were dehydrated and mounted with mounting medium. The images were observed and captured using an EZ4 HD stereo microscope.

elav < APP/BACE-1 flies = test: Fly eclosion rate (pupation and emergence); format: in vivo, Drosophila melanogaster; details: 100, 300, and 500 μM
Experimental: The pupation and emergence rates were determined according to the method of Tamura et al.[78]. The elav < APP/BACE-1 flies were cultured from the egg stage in vials, as stated previously. Groups of 50 third instar larvae climbing on the wall were transferred into vials containing fresh media. The treated and control (0.1% DMSO only) flies were grown under the same conditions as those used for fly maintenance. The numbers of pupae and adults were determined. All treatments were repeated four times using 50 larvae per replicate.

human APP mRNA = test: Real-time qRT-PCR, human APP mRNA in elav < APP/BACE-1 flies; format: in vivo, Drosophila melanogaster; details: 100, 300, and 500 μM; 20-day-old males; compared to vehicle
Experimental: Real-time qRT-PCR with SYBR Green dye was performed to determine whether acacetin affected the expression levels of the human APP and BACE-1 mRNAs in the transgenic flies. The elav < APP/BACE-1 and elav < GFP flies were cultured from the egg stage in vials, as stated previously. The controls received 0.1% DMSO only. The total RNA was extracted from 30 heads (30 mg) of male elav < APP/BACE-1 and elav < GFP flies (20 days old) using the RNeasy Mini Kit (Qiagen, Hilden, Germany) according to the manufacturer’s instructions. The residual genomic DNA was removed using RQ1 RNase-Free DNase (Promega, Fitchburg, WI, USA), and 1 μg of the total RNA from each sample was used for complementary DNA (cDNA) synthesis with an oligo (dT) 12–18 primer (Invitrogen, Carlsbad, CA, USA) according to the protocol of the SuperScript III Reverse Transcriptase Kit. Real-time qRT-PCR was performed in 96-well plates using the StepOne Plus Real-Time PCR System (Applied Biosystems, Darmstadt, Germany). […] The mRNA expression levels of the target genes were normalized to the mRNA expression level of the housekeeping gene rp 49 that encodes the Drosophila ribosomal protein 49, and analyzed by the 2^–ΔΔCT method using the StepOne Software v2.3 and DataAssist Software (Applied Biosystems). The results are expressed as the means ± SEs of duplicate samples from three independent experiments.

Aβ = test: Western blot, Aβ in heads of elav < APP/BACE-1 flies; format: in vivo, Drosophila melanogaster; details: 20-day-old males
Experimental: (§1) The elav < APP/BACE-1 flies were cultured from the egg stage, as described previously. The lysates were obtained from the heads of 50 male flies (20 days old) by placing the heads in 100 μL RIPA buffer (pH 8.0) containing a 1% protease inhibitor cocktail. The controls received 0.1% DMSO. The lysates were centrifuged at 14,000 rpm for 30 min at 4 °C. The protein content of the supernatant was determined using a Bradford Protein Assay kit (Sigma-Aldrich) and BSA was used as the standard. The total proteins (30 μg/sample for APP and BACE-1 detection; 70 μg/sample for Aβ detection) were mixed with an equal volume of 5× sample buffer[81] containing 40 mM of DL-dithiothreitol, boiled for 10 min, and then loaded onto 8, 10, and 12% sodium dodecyl sulfate-polyacrylamide gels using a Mini-Protean 3 electrophoresis cell (Bio-Rad, Hercules, CA, USA) for APP, APP-CTF (APP-αCTF and APP-βCTF) and AICD, BACE-1, and Aβ detection, respectively. After electrophoresis at 110 V in 2 h, the proteins from the gels were transferred onto a polyvinyl difluoride membrane (Pall Corporation, Pensacola, FL, USA) using an electroblotting apparatus. The membrane was then blocked with 5% skim milk (BD Difco, Flanklin Lakes, NJ, USA) in PBS containing 0.1% (v/v) Tween-20 (0.1% PBS-T) at room temperature for 1 h, and further incubated overnight at 4 °C with a 1:4,000 dilution of an anti-APP C-terminal antibody to detect the cleaved APP product, a 1:1,000 dilution of anti-BACE-1, and a 1:1,000 dilution of anti-amyloid (4G8). After washing with 0.1% PBS-T three times at 10 min intervals, the membranes were further incubated for 2 h with a goat anti-rabbit IgG H&L (HRP) secondary antibody at a1:4,000 dilution for APP and BACE-1 and a goat anti-mouse lgG-HRP at a 1:5,000 dilution for β-amyloid. […] The differences in protein expression were quantified using a Molecular Imager Gel Doc XR system (Bio-Rad, Hercules, CA, USA) and normalized to actin expression on the same membrane. The results are expressed as the means ± SEs of duplicate samples from three independent experiments.

[1] = tested on: APP intracellular domain (AICD); test: Western blot, AICD in heads of elav < APP/BACE-1 flies; format: in vivo, Drosophila melanogaster; details: 20-day-old males
Experimental: as §1

T1 sequence (P56817 46-501): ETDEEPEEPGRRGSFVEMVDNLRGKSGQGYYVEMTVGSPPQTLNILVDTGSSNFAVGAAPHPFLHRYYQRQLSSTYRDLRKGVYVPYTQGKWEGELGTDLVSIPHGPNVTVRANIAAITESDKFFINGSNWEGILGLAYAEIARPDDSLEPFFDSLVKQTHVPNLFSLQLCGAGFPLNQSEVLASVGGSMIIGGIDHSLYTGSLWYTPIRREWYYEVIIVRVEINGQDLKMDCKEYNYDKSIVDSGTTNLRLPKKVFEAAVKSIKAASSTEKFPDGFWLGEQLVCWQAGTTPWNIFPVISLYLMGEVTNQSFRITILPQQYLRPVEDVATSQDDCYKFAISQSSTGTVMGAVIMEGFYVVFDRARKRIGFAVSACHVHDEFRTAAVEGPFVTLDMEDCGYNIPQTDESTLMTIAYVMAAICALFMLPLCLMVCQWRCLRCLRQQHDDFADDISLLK

Compound: COc1ccc(-c2cc(=O)c3c(O)cc(O)cc3o2)cc1 [acacetin]
- fold more potent inhibitor of BACE-1 than maslinic acid (recombinant human BACE-1; based on IC50 values): 5.5 fold
- fold more potent inhibitor of BACE-1 than oleanolic acid (recombinant human BACE-1; based on IC50 values): 4.0 fold
- IC50 (recombinant human BACE-1; pH 4.5, 1 h at 25 °C, read-out: IC50, μM (95% CL)): 88.5 µM
- Slope ± SE (recombinant human BACE-1; slope of concentration-inhibition fit, listed as Natural acacetin): 0.4 ± 0.04
- amyloid plaque deposits (GMR < APP/BACE-1 flies; 500 μM): a few amyloid plaque deposits were also detected
- number of amyloid deposits (GMR < APP/BACE-1 flies; 100 and 300 μM): significantly suppressed the number of amyloid deposits
- pupation rate (elav < APP/BACE-1 flies): nearly normal pupation rates
- emergence of flies (elav < APP/BACE-1 flies; vehicle 76%, elav-Gal4/+ 99%, not significant vs vehicle): 82–86%
- reduction in the APP mRNA levels (human APP mRNA): 69–82%
- Aβ levels, % of the controls (Aβ; 100 μM): 71%
- Aβ levels, % of the controls (Aβ; 300 μM): 72%
- Aβ levels, % of the controls (Aβ; 500 μM): 47%
- AICD levels, % of the control levels ([1]; 100 μM): 68%
- AICD levels, % of the control levels ([1]; 300 μM): 27%
- AICD levels, % of the control levels ([1]; 500 μM): 37%
